# In US5306620A, “Antibodies that bind to a ligand-induced binding site on integrin and induce integrin activation” (The Scripps Research Institute, priority 1990, dated 1994):
# Residues, ends and D or L forms follow the SMILES beside them.
# What was measured:
# Type in all cases: cell-based
# GPIIb-IIIa on platelets = target: T1, GPIIb-IIIa on platelets (Homo sapiens, UniProt P05106+P08514); assay: PAC1-binding assay (FACS) on platelets
# T1 construct: endogenous in cells; host or cells: platelets
# T1 sequence (P08514 32-887 limits assumed): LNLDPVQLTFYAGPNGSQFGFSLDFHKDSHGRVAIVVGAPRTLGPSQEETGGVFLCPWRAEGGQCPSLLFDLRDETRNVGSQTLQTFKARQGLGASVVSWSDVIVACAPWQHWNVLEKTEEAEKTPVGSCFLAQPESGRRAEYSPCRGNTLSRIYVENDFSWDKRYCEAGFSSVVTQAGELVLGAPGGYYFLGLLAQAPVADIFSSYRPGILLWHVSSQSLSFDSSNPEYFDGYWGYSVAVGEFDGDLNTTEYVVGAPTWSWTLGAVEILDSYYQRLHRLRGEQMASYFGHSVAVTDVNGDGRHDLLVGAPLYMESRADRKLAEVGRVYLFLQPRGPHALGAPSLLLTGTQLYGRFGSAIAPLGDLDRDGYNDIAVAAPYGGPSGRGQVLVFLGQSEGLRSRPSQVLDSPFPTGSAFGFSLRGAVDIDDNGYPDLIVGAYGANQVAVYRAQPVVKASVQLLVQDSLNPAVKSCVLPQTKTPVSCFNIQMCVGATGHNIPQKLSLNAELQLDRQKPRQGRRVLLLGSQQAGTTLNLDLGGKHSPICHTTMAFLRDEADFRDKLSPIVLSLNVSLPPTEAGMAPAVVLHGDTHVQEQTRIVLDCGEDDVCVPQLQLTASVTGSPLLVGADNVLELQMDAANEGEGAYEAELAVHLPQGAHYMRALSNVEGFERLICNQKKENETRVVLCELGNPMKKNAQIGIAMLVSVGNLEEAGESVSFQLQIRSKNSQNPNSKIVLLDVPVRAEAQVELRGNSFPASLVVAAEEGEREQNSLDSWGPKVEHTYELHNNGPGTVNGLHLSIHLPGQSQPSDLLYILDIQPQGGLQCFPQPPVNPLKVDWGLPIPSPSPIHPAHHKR
# T1 sequence (P08514 891-1039 partner limits assumed): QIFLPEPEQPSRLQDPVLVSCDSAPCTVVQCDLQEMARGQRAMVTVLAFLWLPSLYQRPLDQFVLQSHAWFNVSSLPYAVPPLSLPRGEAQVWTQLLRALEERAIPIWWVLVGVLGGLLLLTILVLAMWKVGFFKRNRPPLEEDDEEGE
# T1 sequence (P05106 27-788): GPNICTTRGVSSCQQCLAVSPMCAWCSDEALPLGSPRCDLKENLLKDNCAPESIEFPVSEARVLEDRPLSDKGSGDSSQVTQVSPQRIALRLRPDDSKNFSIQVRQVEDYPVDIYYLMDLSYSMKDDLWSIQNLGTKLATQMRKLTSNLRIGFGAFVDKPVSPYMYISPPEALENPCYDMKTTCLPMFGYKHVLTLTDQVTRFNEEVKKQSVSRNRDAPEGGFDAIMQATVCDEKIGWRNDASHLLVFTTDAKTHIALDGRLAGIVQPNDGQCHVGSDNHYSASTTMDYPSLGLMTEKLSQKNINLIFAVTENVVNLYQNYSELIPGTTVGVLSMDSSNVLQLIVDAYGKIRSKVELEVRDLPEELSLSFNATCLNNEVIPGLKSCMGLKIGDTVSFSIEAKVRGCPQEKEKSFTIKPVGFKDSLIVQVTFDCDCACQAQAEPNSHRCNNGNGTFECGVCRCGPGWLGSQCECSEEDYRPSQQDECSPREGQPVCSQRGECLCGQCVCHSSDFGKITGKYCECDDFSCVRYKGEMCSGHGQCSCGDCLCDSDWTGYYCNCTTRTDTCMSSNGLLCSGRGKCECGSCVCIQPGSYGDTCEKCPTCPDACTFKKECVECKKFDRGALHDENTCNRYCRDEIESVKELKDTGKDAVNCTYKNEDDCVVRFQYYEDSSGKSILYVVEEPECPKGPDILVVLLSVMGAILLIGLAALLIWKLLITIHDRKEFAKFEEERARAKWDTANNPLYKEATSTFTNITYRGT
# Experimental: (§1) Antibody binding to cells was analyzed by flow cytometry, also referred to as fluorescence-activated cell sorting (FACS). Cells for flow cytometric analysis were harvested with 3.5 mM EDTA and an aliquot of 5×10^5 cells was pelleted, resuspended in media or Tyrodes buffer containing a specific first antibody, and incubated for 20 minutes on ice with or without peptide ligands. Cells were pelleted, washed once, and incubated for 20 minutes with the second antibody, FITC-conjugated goat anti-mouse IgG (Tago, Burlingame, Calif.). Cells were then pelleted, resuspended in 0.5 ml media or Tyrodes and analyzed on a FACS IV analyzer (Becton-Dickinson, San Jose, Calif.).
# In the PAC1-binding assay for integrin-activating antibody, the activating antibody was admixed with an integrin binding cell at a concentration of about 5 uM antibody.
# αIIb β3 on A5 cells [1] = target: T2, αIIb β3 on A5 cells (Homo sapiens, UniProt P05106+P08514); assay: PAC1-binding assay (FACS) on A5 cells; details: for stimulation of PAC1 binding to A5 cells by platelet agonists: ADP 10 to 50 uM, thrombin 1 to 5 units/ml, epinephrine 4 to 200 uM, phorbol myristate acetate 5 to 500 nm, ionomycin 5 to 200 nM
# T2 construct: expressed in transfected cells
# T2 sequence (P08514 32-887 limits assumed): as the sequence (P08514 32-887 limits assumed) above
# T2 sequence (P08514 891-1039 partner limits assumed): as the sequence (P08514 891-1039 partner limits assumed) above
# T2 sequence (P05106 27-788): as the sequence (P05106 27-788) above
# Experimental: as §1
# To that end, PAC1 antibody was fluoresceinated with FICT as described by Taub et al., J. Biol. Chem., 264:259-265 (1989) to form FITC-PAC1 and used directly in flow cytometry. Briefly, 5×10^5 cells were harvested and resuspended to 50 ul in Tyrodes buffer [Frelinger et al., J. Biol. Chem., 265:6346-6352 (1990)]containing 10 ug/ml of FITC-PAC1 in the presence or absence of additional agonists. After a 30 minute incubation at 37 degrees, the samples were diluted to 0.5 ml with Tyrodes and analyzed by flow cytometry as described in Example 7.
# To evaluate the capacity of a monoclonal antibody to activate (i.e., to increase specific ligand binding affinity of) the integrin GPIIb-IIIa, an assay was developed that measures PACT binding to GPIIb-IIIa bearing cells using the FACS analysis as described in Example 7.
# In the PAC1-binding assay for integrin-activating antibody, the activating antibody was admixed with an integrin binding cell at a concentration of about 5 uM antibody. For GPIIb-IIIa, a suspension of cells was prepared as in Example 9, activating antibody was admixed at 5 uM and the admixture was maintained for 20 minutes on ice. Thereafter FITC-PAC1 was added as described in Example 9 and the FACS protocol followed as in Example 9 to measure PAC1 binding.
# αIIb β3 on A5 cells [2] = target: T2, αIIb β3 on A5 cells; assay: Soluble 125I-fibrinogen binding to A5 cells
# Experimental: FIG. 4 illustrates the equilibrium binding of soluble fibrinogen (Fg) to Ab-62 stimulated (activated) A5 cells when measured as in Example 10. A5 cells at a concentration of 10^6 per ml were admixed with 6 uM of Sepharose-purified AB-62 and maintained at 22 C. for 30 minutes to activate the integrin. Iodinated Fg was then admixed in varying concentrations from 0.01 to 1 nM. After a 60 minute maintenance period, the bound ligand was separated from free ligand by centrifugation through 0.3 ml of 20% sucrose. The amount of radiolabelled ligand associated with the cell pellet was determined by gamma detection. Saturable binding was measured in three different experiments and plotted versus the input Fg concentration to obtain an averaged profile. A Scatchard replot of the binding data was made and is shown in the insert.
# An independent measure of integrin activation was made by detecting the ability of a cell containing the integrin to bind soluble fibrinogen (Fg) that had been labelled with ^125 I. Fg was isolated and labelled with ^125 I by standard methods as described by Marguerie et al., J. Biol. Chem., 255:154-161 (1980) to form ^125 I-Fg. Thereafter, the binding of ^125 I-Fg to transfected cells was assayed as described previously for platelets [Marguerie et al., J. Biol. Chem., 255:154-161 (1980)]. Binding was initiated by the addition of cells to radiolabelled Fg and incubation at 37 degrees for 30 minutes. Bound ligand was separated from free ligand by centrifugation through 0.3 ml of 20% sucrose and the amount of radiolabelled ligand associated with the cell pellet determined by gamma detection.
# Background binding in this assay detected about 30,000 molecules of Fg bound per integrin bearing cell, whereas maximum Ab-62 stimulated A5 cells bound about 95,000 molecules of Fg per cell.
# Equilibrium binding of soluble Fg to Ab-62 stimulated (activated) A5 cells was carried out to better characterize Fg binding. […] A5 cells (10^6 per ml) were incubated with 6 uM Sepharose-purified Ab-62 for 30 minutes at 22 C. to activate the integrin. Thereafter ^125 I-Fg was admixed in varying concentrations from 0.01 to 1 nM. After 60 minutes, bound Fg was measured as described above after centrifugation of the cells through sucrose.
# Saturable binding was measured in three different experiments and plotted versus the input Fg concentration to obtain average data which is shown in FIG. 4. A Scatchard replot of the binding data was also made and is shown in the inset to FIG. 4. The binding of the various concentrations of Fg to activated A5 cells at steady state was analyzed by use of the "Ligand" computer program. […] There was day to day variation in the quantity of αIIb β3 expressed as measured by the binding of the 2G12 antibody (150,000 to 440,000 sites/cell) as well as in the number of Fg receptors (138,000 to 360,000 sites/cell). The ratio of Fg receptors to αIIb β3 expressed per cell on a given day was 0.83±0.05, thus virtually all of the recombinant αIIb β3 was functional with respect to Fg binding.
# [3] = target: T3, αIIb β3 on fixed platelets (Homo sapiens, UniProt P05106+P08514); assay: FITC-PAC1 binding to formaldehyde fixed platelets; details: 0.1% paraformaldehyde; PMA 50 nM, thrombin 1 unit/ml
# T3 construct: To fix platelets, blood from a normal donor was centrifuged at 1,000 rpm; endogenous in cells; host or cells: platelets from blood of a normal donor, fixed with 0.1% paraformaldehyde
# T3 sequence (P08514 32-887 limits assumed): as the sequence (P08514 32-887 limits assumed) above
# T3 sequence (P08514 891-1039 partner limits assumed): as the sequence (P08514 891-1039 partner limits assumed) above
# T3 sequence (P05106 27-788): as the sequence (P05106 27-788) above
# Experimental: The data described in Examples 10 and 11 established that Fab fragments of the activating antibodies P41 or Ab62 activate A5 cells and platelets to express αIIb β3 dependent receptors for fluid phase Fg and PAC1. To determine if this activation required intracellular signal transduction events, the capacity of these Fabs to induce PACI binding to formaldehyde fixed platelets was measured.
# To fix platelets, blood from a normal donor was centrifuged at 1,000 rpm for 20 minutes and the resulting platelet rich plasma incubated with 2 ug/ml PGE1 and 1 mM theophylline for 15 minutes at room temperature followed by a 15 minute room temperature incubation with 0.1% paraformaldehyde. Fixed or normal platelets were then analyzed for FITC-PAC1 binding as described above in Example 9 in the presence of platelet agonists, or activating antibody P41.
compound,measurement,setting,value
"Nc1ncnc2c1ncn2[C@@H]1O[C@H](COP(=O)(O)OP(=O)(O)O)[C@@H](O)[C@H]1O [ADP, adenosine diphosphate]",PAC1 staining of agonist activated platelets,"GPIIb-IIIa on platelets; ADP activated platelets, FACS",stained brightly
same,stimulation of PAC1 binding to A5 cells by platelet agonists,αIIb β3 on A5 cells [1],failed to stimulate
N=C(N)NCCC[C@H](NC(=O)CN)C(=O)NCC(=O)N[C@@H](CCC(=O)O)C(=O)N[C@@H](CO)C(=O)N1CCC[C@H]1C(=O)O [GRGESP] (H-GRGESP-OH),inhibition of soluble 125I-Fg binding to activated A5 cells,αIIb β3 on A5 cells [2],not inhibited
CNC[C@H](O)c1ccc(O)c(O)c1 [epinephrine],stimulation of PAC1 binding to A5 cells by platelet agonists,αIIb β3 on A5 cells [1],failed to stimulate
C[C@H](CCC(=O)O)C[C@H](C)C[C@H](C)C(=O)/C=C(\O)[C@H](C)C[C@H](C)C/C=C/[C@@H](C)[C@@H](O)[C@@H](C)[C@@H](O)C[C@@H]1CC[C@@](C)([C@H]2CC[C@@](C)([C@@H](C)O)O2)O1 [ionomycin],stimulation of PAC1 binding to A5 cells by platelet agonists,αIIb β3 on A5 cells [1],failed to stimulate
CCCCCCCCCCCCCC(=O)O[C@@H]1[C@@H](C)[C@@]2(O)[C@@H](C=C(CO)C[C@]3(O)C(=O)C(C)=C[C@@H]23)[C@@H]2C(C)(C)[C@]12OC(C)=O [phorbol myristate acetate],stimulation of PAC1 binding to A5 cells by platelet agonists,αIIb β3 on A5 cells [1],failed to stimulate
same,PAC1 response after fixation of platelets,[3],completely abrogated
PAC1,reaction of PAC1 with resting platelets,"GPIIb-IIIa on platelets; FITC-PAC1 10 ug/ml, no agonist",did not react
same,reaction of PAC1 with αIIb β3 in the A5 cell line,"αIIb β3 on A5 cells [1]; FITC-PAC1 10 ug/ml, no agonist",did not react
thrombin,stimulation of PAC1 binding to A5 cells by platelet agonists,αIIb β3 on A5 cells [1],failed to stimulate
same,PAC1 response after fixation of platelets,[3],completely abrogated
